PMC9837035 (Nature Communications, 2023)
Several values for one entry are separate records, joined by “and”; a condition that tells them apart may be missing. Identical values can stand only once. Like-named read-outs stand apart in the source and are kept apart here.

Tests used:
[1] = tested on: α-, β-, εy-, and βh1-globin mRNA in peripheral blood; assay: Globin mRNA levels in peripheral blood of treated mice; type: in vivo
Method: Total cellular RNA was prepared using the Tissue Total RNA Mini Kit (FAVORGEN), and cDNA was synthesized using ReverTra Ace Master Mix (TOYOBO). Expression of target genes was analyzed using THUNDERBIRD SYBR qPCR Mix (TOYOBO) on a CFX Connect Real Time System (Bio-Rad). The qPCR data were acquired on CFX Maestro (Bio-Rad). Primers are listed in Supplementary Table 10. GAPDH was used as a reference. Primers were purchased from INTEGRATED DNA TECHNOLOGIES or FASMAC.
C57BL/6 mice (6–8 weeks old, female, six mice/group) were purchased from Tokyo Laboratory Animals Science. The mice were fed a standard laboratory diet and housed in a temperature-controlled room under specific pathogen-free conditions. A combination anesthetic was prepared with 0.3 mg/kg medetomidine, 4.0 mg/kg midazolam, and 5.0 mg/kg butorphanol.
The dosing solution contained 15% DMSO, 17.5% Cremophor EL, 8.75% EtOH, 8.75% HCO-40, and 50% PBS. Blood samples were collected once a week by Retro Orbital Sampling (75 μL Calibrated Micropipette; Drummond Scientific Company) during isoflurane anesthesia. Blood RNA was extracted using NucleoSpin RNA Blood (Takara Bio Inc.). The weight of each mouse was measured every 3 or 4 days.

PRDM9 = molecular target: T1, PRDM9 (Homo sapiens, UniProt Q9NQV7); assay: Radioisotope-based methyltransferase assay (selectivity); type: biochemical; conditions: read-out: IC50
T1 construct: purchased Reaction Biology

PRMT4 = molecular target: T2, PRMT4 (Homo sapiens, UniProt Q86X55); assay: as above; type: biochemical
T2 construct: purchased Reaction Biology

[2] = tested on: Salmonella typhimurium TA98; assay: Ames test, TA98
Method: The Salmonella mutagenicity assay was performed by pre-incubating the test compounds for 20 min with Salmonella typhimurium strains TA98 and TA100, with and without metabolic activation (S9 mixture).
After this time 2 mL of top agar was added to the mixture and poured on to a plate containing minimum agar. The plates were incubated at 37 °C for 49 h and the His ± revertant colonies were counted manually and automatically by a colony counter (Colony analyzer CA-11D systems, System science Co.,Ltd.). The influence of metabolic activation was tested by adding 500 μL of 10% S9 mixture. All experiments were performed in duplicate. […] DMSO served as the negative control (100 μL/plate). The mutagenic index (MI, the average number of revertants per plate divided by the average number of revertants per plate from the negative control) was also calculated for each dose. A sample was considered positive when the MI was equal to or greater than 2 for at least one of the tested doses.

H3K9me2 in HUDEP-2 cells = assay: Western blotting of H3K9me2 in HUDEP-2 cells; type: cell-based, human; conditions: HUDEP-2, 4 days
Method: Preparation of cell lysates and western blotting were performed as described previously. Protein from cells lysates in lysis buffer (50 mM Tris-HCl (pH 7.5), 150 mM NaCl, 5 mM EDTA, 0.1% NP-40, 1 mM dithiothreitol) were separated by sodium dodecyl sulfate–polyacrylamide gel electrophoresis (SDS-PAGE) and transferred to a polyvinylidene difluoride (PVDF) membrane (Millipore) by electroblotting. The membranes incubated with primary antibodies overnight at 4 °C and secondary antibodies for 1 h at room temperature. The immune complexes were detected with the Immobilon Western Chemiluminescent HRP Substrate (Millipore). Luminescence was analyzed on a FUSION SOLO S (Vilber). Western blot bands were visualized using Evolution Capt software (M&S Instruments Inc.). Primary antibodies used were anti-G9a (1:1000, CST, #3306), anti–α-tubulin (1:5000, Abcam, ab18251), anti-H3K9me2 (1:3000, Abcam, ab1220), anti-H3 (1:5000, Abcam, ab1791), anti-H3K27me3 (1:3000, Sigma, 07-449), anti-GLP (1:1000, CST, #35005), anti-FLAG (100 ng/ml, Fujifilm, 01422383), anti-His (1:5000, MBL, PM032), anti-BCL11A (1:1000, abcam, ab19487), anti-ZBTB7A (1:1000, CST, #50565), anti-CHD3 (1:1000, Novus Biologicals, NB100-60412), and anti-CHD4 (1:1000, abcam, ab240640). Uncropped scans of all of the blots are available in Source Data file.

DNMT1 = DNMT1 (Homo sapiens, UniProt P26358); assay: Radioisotope-based methyltransferase assay (selectivity); conditions: IC50, DNMT1, 1 μM SAM
DOT1L = molecular target: T3, DOT1L (Homo sapiens, UniProt Q8TEK3); assay: as above; type: biochemical
T3 construct: purchased Reaction Biology

EZH2 (Y641F) = EZH2 (Y641F) (Homo sapiens, UniProt Q15910, Y641F); assay: biochemical
SUV39H1 = molecular target: T4, SUV39H1 (Homo sapiens, UniProt O43463); assay: Radioisotope-based methyltransferase assay (selectivity); type: biochemical
T4 construct: purchased Reaction Biology

PRMT1 = PRMT1 (Homo sapiens, UniProt Q99873)

T2 sequence (Q86X55 whole entry): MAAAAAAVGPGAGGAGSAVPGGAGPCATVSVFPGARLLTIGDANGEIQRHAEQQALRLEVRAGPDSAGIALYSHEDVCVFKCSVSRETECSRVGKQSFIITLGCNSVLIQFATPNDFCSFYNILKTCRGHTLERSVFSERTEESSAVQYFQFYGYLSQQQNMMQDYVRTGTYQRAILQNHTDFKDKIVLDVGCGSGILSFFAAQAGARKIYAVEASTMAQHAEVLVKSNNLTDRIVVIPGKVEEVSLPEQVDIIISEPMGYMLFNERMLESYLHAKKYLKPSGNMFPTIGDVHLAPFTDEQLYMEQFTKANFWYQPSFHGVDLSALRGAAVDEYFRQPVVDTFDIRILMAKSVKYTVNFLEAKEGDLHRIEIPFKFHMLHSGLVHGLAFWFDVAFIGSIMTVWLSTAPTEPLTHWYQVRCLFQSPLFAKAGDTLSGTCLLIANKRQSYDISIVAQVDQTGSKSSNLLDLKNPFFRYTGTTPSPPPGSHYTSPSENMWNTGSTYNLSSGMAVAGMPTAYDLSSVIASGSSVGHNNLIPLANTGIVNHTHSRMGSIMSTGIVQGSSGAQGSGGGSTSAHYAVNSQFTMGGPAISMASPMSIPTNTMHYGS
T4 sequence (O43463 whole entry): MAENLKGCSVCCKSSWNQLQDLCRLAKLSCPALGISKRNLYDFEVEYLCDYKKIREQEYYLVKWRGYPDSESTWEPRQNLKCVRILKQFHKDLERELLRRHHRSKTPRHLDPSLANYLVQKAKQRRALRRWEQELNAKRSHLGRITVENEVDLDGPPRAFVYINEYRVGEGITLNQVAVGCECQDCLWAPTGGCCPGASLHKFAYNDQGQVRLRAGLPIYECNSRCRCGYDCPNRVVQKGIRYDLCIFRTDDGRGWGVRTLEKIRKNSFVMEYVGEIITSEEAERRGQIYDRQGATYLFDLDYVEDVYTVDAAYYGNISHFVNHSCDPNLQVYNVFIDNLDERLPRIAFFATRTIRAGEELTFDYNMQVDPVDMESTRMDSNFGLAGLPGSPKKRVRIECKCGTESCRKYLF
T3 sequence (Q8TEK3 whole entry): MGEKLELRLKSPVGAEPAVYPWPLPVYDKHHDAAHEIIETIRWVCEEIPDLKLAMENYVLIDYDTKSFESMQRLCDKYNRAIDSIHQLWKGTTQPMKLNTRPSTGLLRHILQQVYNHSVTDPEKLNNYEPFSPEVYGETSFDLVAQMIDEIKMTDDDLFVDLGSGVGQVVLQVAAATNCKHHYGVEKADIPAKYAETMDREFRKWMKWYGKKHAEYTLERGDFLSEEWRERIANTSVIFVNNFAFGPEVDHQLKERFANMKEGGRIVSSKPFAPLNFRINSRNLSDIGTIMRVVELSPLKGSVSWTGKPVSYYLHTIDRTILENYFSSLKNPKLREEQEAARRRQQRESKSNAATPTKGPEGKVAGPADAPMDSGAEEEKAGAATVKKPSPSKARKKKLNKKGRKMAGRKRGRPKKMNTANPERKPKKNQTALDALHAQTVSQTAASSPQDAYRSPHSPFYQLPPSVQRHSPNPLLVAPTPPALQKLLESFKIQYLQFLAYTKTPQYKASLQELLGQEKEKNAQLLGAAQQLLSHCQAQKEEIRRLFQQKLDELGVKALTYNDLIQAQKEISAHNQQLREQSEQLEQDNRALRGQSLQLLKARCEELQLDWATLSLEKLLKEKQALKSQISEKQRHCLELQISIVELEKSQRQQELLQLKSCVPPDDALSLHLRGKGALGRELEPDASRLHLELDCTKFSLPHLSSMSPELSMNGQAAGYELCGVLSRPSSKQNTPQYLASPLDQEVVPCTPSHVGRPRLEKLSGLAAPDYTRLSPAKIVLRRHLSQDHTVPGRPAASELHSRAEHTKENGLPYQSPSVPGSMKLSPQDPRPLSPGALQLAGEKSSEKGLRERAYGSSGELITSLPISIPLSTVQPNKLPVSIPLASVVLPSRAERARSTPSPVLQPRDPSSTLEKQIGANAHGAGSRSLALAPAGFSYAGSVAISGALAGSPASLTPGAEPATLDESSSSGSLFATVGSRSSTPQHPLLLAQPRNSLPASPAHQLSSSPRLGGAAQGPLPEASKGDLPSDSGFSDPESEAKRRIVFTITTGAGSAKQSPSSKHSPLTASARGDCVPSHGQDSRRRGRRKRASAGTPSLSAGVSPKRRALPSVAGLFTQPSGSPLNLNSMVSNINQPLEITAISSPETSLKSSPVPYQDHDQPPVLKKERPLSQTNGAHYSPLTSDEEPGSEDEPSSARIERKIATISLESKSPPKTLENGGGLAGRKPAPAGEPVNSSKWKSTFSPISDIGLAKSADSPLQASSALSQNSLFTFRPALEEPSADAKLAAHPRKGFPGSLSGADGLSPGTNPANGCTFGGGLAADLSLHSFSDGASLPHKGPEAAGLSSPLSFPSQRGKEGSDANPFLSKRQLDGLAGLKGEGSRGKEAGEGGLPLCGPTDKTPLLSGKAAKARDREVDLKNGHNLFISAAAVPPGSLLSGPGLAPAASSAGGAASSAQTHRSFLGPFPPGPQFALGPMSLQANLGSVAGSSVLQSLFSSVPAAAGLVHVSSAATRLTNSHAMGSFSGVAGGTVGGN
T1 sequence (Q9NQV7 whole entry): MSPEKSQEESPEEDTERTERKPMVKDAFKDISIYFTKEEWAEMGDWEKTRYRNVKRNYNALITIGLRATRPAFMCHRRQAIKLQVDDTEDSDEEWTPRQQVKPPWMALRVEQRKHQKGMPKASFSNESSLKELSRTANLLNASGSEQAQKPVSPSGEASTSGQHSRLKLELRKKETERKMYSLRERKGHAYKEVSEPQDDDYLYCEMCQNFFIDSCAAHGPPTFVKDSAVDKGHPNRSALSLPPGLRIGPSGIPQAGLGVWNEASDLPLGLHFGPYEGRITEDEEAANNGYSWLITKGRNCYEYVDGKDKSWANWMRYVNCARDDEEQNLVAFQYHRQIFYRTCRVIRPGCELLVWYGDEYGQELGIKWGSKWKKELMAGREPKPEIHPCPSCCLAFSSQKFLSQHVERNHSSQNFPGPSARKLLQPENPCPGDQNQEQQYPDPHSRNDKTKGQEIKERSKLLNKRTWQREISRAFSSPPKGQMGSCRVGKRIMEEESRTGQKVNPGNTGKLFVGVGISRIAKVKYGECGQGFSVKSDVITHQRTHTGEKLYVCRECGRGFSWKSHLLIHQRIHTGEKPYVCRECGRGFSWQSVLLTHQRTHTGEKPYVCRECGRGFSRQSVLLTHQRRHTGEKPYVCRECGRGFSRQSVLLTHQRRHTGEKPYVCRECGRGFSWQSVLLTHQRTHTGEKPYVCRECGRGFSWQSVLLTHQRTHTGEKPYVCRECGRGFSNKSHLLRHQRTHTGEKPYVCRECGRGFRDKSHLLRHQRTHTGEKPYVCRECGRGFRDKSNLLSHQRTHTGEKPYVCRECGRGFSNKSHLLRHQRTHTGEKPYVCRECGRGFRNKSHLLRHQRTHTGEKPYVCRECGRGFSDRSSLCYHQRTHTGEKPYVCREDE
Sequence of DNMT1 (P26358 whole entry): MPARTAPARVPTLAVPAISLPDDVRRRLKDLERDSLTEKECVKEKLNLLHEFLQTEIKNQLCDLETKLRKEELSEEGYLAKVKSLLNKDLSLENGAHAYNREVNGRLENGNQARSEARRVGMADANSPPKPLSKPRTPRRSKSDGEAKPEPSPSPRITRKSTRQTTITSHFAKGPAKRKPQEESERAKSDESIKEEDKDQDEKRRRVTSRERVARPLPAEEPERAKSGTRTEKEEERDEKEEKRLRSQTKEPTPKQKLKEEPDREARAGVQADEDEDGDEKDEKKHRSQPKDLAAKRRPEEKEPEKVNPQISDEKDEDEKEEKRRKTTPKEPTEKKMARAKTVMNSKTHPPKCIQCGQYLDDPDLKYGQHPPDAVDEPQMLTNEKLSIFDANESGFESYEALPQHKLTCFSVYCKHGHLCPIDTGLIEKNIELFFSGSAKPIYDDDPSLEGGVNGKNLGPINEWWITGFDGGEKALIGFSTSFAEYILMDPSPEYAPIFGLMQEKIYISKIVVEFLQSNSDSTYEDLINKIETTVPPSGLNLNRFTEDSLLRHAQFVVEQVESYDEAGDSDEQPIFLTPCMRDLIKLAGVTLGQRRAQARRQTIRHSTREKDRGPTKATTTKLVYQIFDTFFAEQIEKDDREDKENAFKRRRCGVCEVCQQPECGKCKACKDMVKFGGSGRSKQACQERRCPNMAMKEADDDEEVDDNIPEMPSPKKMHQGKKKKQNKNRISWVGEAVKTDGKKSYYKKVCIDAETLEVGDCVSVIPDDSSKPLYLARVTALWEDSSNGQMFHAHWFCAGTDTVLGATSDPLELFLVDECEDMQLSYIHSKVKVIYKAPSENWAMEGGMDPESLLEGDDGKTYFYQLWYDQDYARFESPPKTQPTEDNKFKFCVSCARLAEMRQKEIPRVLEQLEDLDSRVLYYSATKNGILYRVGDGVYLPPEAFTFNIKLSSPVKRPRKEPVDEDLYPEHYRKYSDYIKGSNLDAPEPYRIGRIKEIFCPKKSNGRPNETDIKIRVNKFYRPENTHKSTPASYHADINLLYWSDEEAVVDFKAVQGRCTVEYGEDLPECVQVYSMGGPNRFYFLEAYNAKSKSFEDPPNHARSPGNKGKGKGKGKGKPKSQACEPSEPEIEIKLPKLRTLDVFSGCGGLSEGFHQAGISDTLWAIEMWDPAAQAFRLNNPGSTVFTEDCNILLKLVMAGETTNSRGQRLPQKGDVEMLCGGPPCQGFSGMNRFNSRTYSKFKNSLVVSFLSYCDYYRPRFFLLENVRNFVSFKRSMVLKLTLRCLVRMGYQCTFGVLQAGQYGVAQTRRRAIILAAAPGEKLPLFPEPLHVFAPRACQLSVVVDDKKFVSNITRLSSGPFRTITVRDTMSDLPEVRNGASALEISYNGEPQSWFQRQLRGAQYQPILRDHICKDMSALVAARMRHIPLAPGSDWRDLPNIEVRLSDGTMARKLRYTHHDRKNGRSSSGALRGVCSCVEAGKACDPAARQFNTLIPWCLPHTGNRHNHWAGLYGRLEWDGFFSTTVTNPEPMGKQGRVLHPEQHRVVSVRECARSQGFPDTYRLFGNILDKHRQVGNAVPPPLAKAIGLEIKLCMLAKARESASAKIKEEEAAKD

Structure (SMILES): Cc1c(C(=O)NC(CCC2CC2)C(=O)Nc2ccc(C#N)cc2)[nH]c2c1C(=O)CC(C)(C)C2 (stereo not drawn) [RK-701]
- mouse embryonic εy-globin [1]: selectively increased
- IC50 (PRDM9; PRDM9, 1 μM SAM): > 100 µM
- IC50 (PRDM9; PRDM9, RK-701 in duplicate): > 100 µM
- IC50 (PRMT4; PRMT4, 1 μM SAM): > 100 µM
- IC50 (PRMT4; PRMT4, RK-701 in duplicate): > 100 µM
- Number of reverants/plate ([2]; TA98, + S9, frameshift mutation, 4.88 μg/plate): 28
- Number of reverants/plate ([2]; TA98, + S9, frameshift mutation, 19.5 μg/plate): 29 and 28
- Number of reverants/plate ([2]; TA98, + S9, frameshift mutation, 78.1 μg/plate): 31 and 30
- Number of reverants/plate ([2]; TA98, + S9, frameshift mutation, 313 μg/plate): 28
- Number of reverants/plate ([2]; TA98, + S9, frameshift mutation, 1250* μg/plate): 32 and 28
- Number of reverants/plate ([2]; TA98, + S9, frameshift mutation, 2500* μg/plate): 28
- Number of reverants/plate ([2]; TA98, + S9, frameshift mutation, 5000* μg/plate): 28 and 23
- Number of revertants/plate ([2]; TA98, +S9, 4.88 μg/plate): 28
- Number of revertants/plate ([2]; TA98, +S9, 19.5 μg/plate): 29
- Number of revertants/plate ([2]; TA98, +S9, 78.1 μg/plate): 31
- Number of revertants/plate ([2]; TA98, +S9, 313 μg/plate): 28
- Number of revertants/plate ([2]; TA98, +S9, 1250 μg/plate, insoluble material): 30
- Number of revertants/plate ([2]; TA98, +S9, 2500 μg/plate, insoluble material): 28
- Number of revertants/plate ([2]; TA98, +S9, 5000 μg/plate, insoluble material): 26
- Number of reverants/plate ([2]; TA98, - S9, frameshift mutation, 4.88 μg/plate): 13 and 20
- Number of reverants/plate ([2]; TA98, - S9, frameshift mutation, 19.5 μg/plate): 12 and 13
- Number of reverants/plate ([2]; TA98, - S9, frameshift mutation, 78.1 μg/plate): 14 and 20
- Number of reverants/plate ([2]; TA98, - S9, frameshift mutation, 313 μg/plate): 14 and 12
- Number of reverants/plate ([2]; TA98, - S9, frameshift mutation, 1250* μg/plate): 11 and 12
- Number of reverants/plate ([2]; TA98, - S9, frameshift mutation, 2500* μg/plate): 11 and 12
- Number of reverants/plate ([2]; TA98, - S9, frameshift mutation, 5000* μg/plate): 13 and 16
- Number of revertants/plate ([2]; TA98, -S9, 4.88 μg/plate): 17
- Number of revertants/plate ([2]; TA98, -S9, 19.5 μg/plate): 13
- Number of revertants/plate ([2]; TA98, -S9, 78.1 μg/plate): 17
- Number of revertants/plate ([2]; TA98, -S9, 313 μg/plate): 13
- Number of revertants/plate ([2]; TA98, -S9, 1250 μg/plate, insoluble material): 12
- Number of revertants/plate ([2]; TA98, -S9, 2500 μg/plate, insoluble material): 12
- Number of revertants/plate ([2]; TA98, -S9, 5000 μg/plate, insoluble material): 15
- mutagenicity ([2]; TA98, regardless of metabolic activation): no mutagenicity
- cellular H3K9me2 levels (H3K9me2 in HUDEP-2 cells): dose-dependent reduction
- IC50 (DNMT1): > 100 µM
- IC50 (DOT1L; 1 μM SAM): > 100 µM
- IC50 (DOT1L; RK-701 in duplicate): > 100 µM
- IC50 (EZH2 (Y641F)): > 100 µM
- IC50 (SUV39H1; SUV39H1, 1 μM SAM): > 100 µM
- IC50 (SUV39H1; SUV39H1, RK-701 in duplicate): > 100 µM
- IC50 (PRMT1): > 100 µM
